According to article PMC8234462, “Novel Cyclophilin Inhibitor Decreases Cell Proliferation and Tumor Growth in Models of Hepatocellular Carcinoma” (Cancers, 2021):
Entries after “also recorded” stand apart in the source; their conditions may differ. Like-named read-outs stand apart in the source and are kept apart here.

Assays:
[1] = system: primary human hepatocytes; test: Cell health parameters by fluorescent imaging (ArrayScan); format: cell-based; settings: for AC50: Hepatocyte
Protocol: This experiment was performed in Cyprotex (Watertown, MA, USA). Cryopreserved Primary human hepatocytes plated on 384 black-well plate cells were dosed with NV651 at a range of concentrations (0.195, 0.391, 0.781, 1.56, 3.13, 6.25, 12.5, 25, 50 and 100 µM). At the end of the incubation period (24 or 48 h), several health parameters were analyzed to evaluate the potential cytotoxicity of NV651 in primary human hepatocytes, including the total cell count with Hoechst staining and PI subtraction (a nonpermeable dye to quantify dead cells), nuclear intensity, Glutathione content (GSH), mitochondrial membrane potential, reactive oxygen species (ROS), steatosis, nuclear size and DNA structure. Plates were then scanned using an automated fluorescent cellular imager, ArrayScan (Thermo Scientific Cellomics).

[2] = In vivo toxicity, body weight; settings: BALB/c nude mice; 25, 50 or 200 mg/kg daily IP for 5 days
Protocol: All the procedures related to animal handling, care and the treatment in this study were performed according to the guidelines approved by the Institutional Animal Care and Use Committee (IACUC) of Shanghai ChemPartner Ltd. (Shanghai, China) following the guidance of the Association for Assessment and Accreditation of Laboratory Animal Care (AAALAC). BALB/c nude mice were kept in individual ventilation cages at a constant temperature and humidity, with 5 animals in each cage. Animals had free access to irradiation-sterilized dry granule food during the entire study period and water. BALB/c nude mice between 6–8 weeks were treated with either 25, 50 or 200 mg/kg dissolved in 25% buffered beta OH cyclodextrin (n = 5 mice per treatment). Daily doses were given intraperitoneally (IP) for 5 days. Mice were weighted daily until the 6th day.

[3] = system: HEP3B2.1-7-Luc; test: Cell proliferation assay: Acumen; format: cell-based; settings: Homo sapiens, 168 h, 7 days, read-out: Abs IC50 growth inhibition
Protocol: (§1) Compound screening and comparison of the antiproliferative effect of NV651 and sorafenib were performed by Shanghai ChemPartner Co., Ltd. (Shanghai, China). Cells were seeded in a 96-well plate at the following concentrations: LIXC-003 400 cells/well, LIXC-004 1000 cells/well, LIXC-086 5000 cells/well, LIXC-066 1250 cells/well, LIXC-012 2000 cells/well, LIXC-006 1250 cells/well, HEPG2 1000 cells/well, HUH7 2000 cells/well and Hep3B2.1-7-Luc 1000 cells/well. Cells were treated with either sorafenib or NV651 at 0.004, 0.011, 0.034, 0.103, 0.309, 0.926, 2.778, 8.333, 25 µM or an equivalent volume with DMSO.
(§2) After 7 days, cells were trypsinized and collected. Fifty microliters of cell suspension were added to 50 µL of 2-µM Calcein AM (Invitrogen, Cat# C3099, Waltham, MA, USA) diluted in HBSS and placed in a black-walled 96-well plate. The plate was left for 30 min at room temperature, followed by a scan with Acumen eX3.
(§3) Growth inhibition for direct cell counting (%) by Acumen was calculated as:(1) 100−100∗Experimental count−Blank/DMSO count −Blank

[4] = system: HEPG2; test: Cell proliferation assay: Acumen; format: cell-based; settings: Homo sapiens, 168 h, 7 days, read-out: Abs IC50 growth inhibition
Protocol: as §1, §2, §3

[5] = system: HUH7; test: Cell proliferation assay: Acumen; format: cell-based; settings: Homo sapiens, Huh-7, 168 h, 7 days, read-out: Abs IC50 growth inhibition
Protocol: as §1, §2, §3

[6] = system: LIXC-003; test: Cell proliferation assay: Acumen; format: cell-based; settings: Homo sapiens, 168 h, 7 days, read-out: Abs IC50 growth inhibition
Protocol: as §1, §2, §3

[7] = system: LIXC-004; test: Cell proliferation assay: Acumen; format: cell-based; settings: Homo sapiens, 168 h, 7 days, read-out: Abs IC50 growth inhibition
Protocol: as §1, §2, §3

[8] = system: LIXC-006; test: Cell proliferation assay: Acumen; format: cell-based; settings: Homo sapiens, 168 h, 7 days, read-out: Abs IC50 growth inhibition
Protocol: as §1, §2, §3

[9] = system: LIXC-012; test: Cell proliferation assay: Acumen; format: cell-based; settings: Homo sapiens, 168 h, 7 days, read-out: Abs IC50 growth inhibition
Protocol: as §1, §2, §3

[10] = system: LIXC-066; test: Cell proliferation assay: Acumen; format: cell-based; settings: Homo sapiens, 168 h, 7 days, read-out: Abs IC50 growth inhibition
Protocol: as §1, §2, §3

[11] = system: LIXC-086; test: Cell proliferation assay: Acumen; format: cell-based; settings: Homo sapiens, 168 h, 7 days, read-out: Abs IC50 growth inhibition
Protocol: as §1, §2, §3

[12] = system: HEPG2; test: Phospho-Histone 3 (PH3) staining; format: cell-based, human; settings: 10 or 100 nM, 24 h
Protocol: (§4) For the quantification of mitotic cells, HEPG2 cells were seeded in a 6-well plate at a concentration of 1.5 × 10^5 cells/well and HUH7 at 1 × 10^5 cells/well in a 6-well plate. Both cells lines were treated with 10 or 100 nM of NV651 or the equivalent volume of DMSO. Samples were fixed for HEPG2 at 24 h and for HUH7 at 48 h of treatment, as described above. Permeabilization was performed by adding 0.25% Tween20 (Sigma-Aldrich, Cat# P1379-500ML, St. Louis, MO, USA) diluted in PBS. Samples were stained with primary antibody mouse anti-PH3 (Merck Millipore, Cat# 05-806, Burlington, MA, USA) at a dilution of 1/100 overnight at 4 °C and with the secondary antibody goat anti-Mouse IgG AF488 conjugated (Life technologies, Cat# A11029, Carlsbad, CA, USA) for 1 h at room temperature. After washing, 1-µg/mL DAPI was added for the staining of the DNA content.
(§5) Data was acquired with FACSverse Instrument and analyzed with FCS Express 6 Flow Research.

[13] = system: HUH7; test: Phospho-Histone 3 (PH3) staining; format: cell-based, human; settings: 10 or 100 nM, 48 h
Protocol: as §4, §5

[14] = system: human-derived normal cells; test: Cytotoxicity panel of human-derived normal cells (overall); format: cell-based; settings: overall statement
Protocol: The evaluation of the off-target effects of NV651 was performed by ImQuest BioSciences Inc. (Frederick, MD, USA) by analyzing the cytotoxicity in a panel of primary cells. NV651 was evaluated at a concentration of 30 µM and five serial half-logarithmic dilutions in triplicate. The positive control compounds for each cell type were purchased from Sigma-Aldrich (St. Louis, MO, USA) and were as follows: […]

For `CC(=O)CCC1C(=O)NC(C(C)C)C(=O)NC(Cc2cc(O)cc(F)c2)C(=O)N2CCCC(N2)C(=O)OC(C(C)=CC=CC(=O)OC(C)(C)C)CC=CC=CC(O)C(C)C1O` (centres unmarked) [NV651], the “MEC, Glutathione content” value ([1]; 24 h) was 2.62 µM, the “MEC, Mitochondrial Membrane potential” value ([1]; 24 h) was 12.40 µM and the “MEC, Nuclear intensity” value ([1]; 24 h) was 8.90 µM. The “MEC, ROS” value ([1]; 24 h) was 6.43 µM, the “MEC, Cell count (PI corrected)” value ([1]; 48 h) was 6.14 µM and the “MEC, DNA structure” value ([1]; 48 h) was 10.90 µM. For the same molecule, the “MEC, Nuclear size” value ([1]; 48 h) was 18.10 µM, the “MEC, Steatosis” value ([1]; 48 h) was 6.81 µM and the AC50 ([1]; 24 h, read-out: AC50, Glutathione content) was 10900 nM. For the same molecule, the AC50 ([1]; 24 h, read-out: AC50, Mitochondrial Membrane potential) was 14200 nM, the AC50 ([1]; 24 h, read-out: AC50, Nuclear intensity) was 8940 nM and the AC50 ([1]; 24 h, read-out: AC50, ROS) was 8170 nM. The AC50 ([1]; 48 h, read-out: AC50, Cell count (PI corrected)) was 13900 nM, the AC50 ([1]; 48 h, read-out: AC50, DNA structure) was 34400 nM and the AC50 ([1]; 48 h, read-out: AC50, Nuclear size) was 21500 nM. The AC50 ([1]; 48 h, read-out: AC50, Steatosis) was 39000 nM, the body weight change [2] was “no significant weight loss or other clinical signs; also recorded: no body weight losses” and the IC50 [3] was 9 nM. For the same molecule, the IC50 [4] was 6.3 nM, the IC50 [5] was 3 nM and the IC50 [6] was 9 nM. The IC50 [7] was 4 nM, the IC50 [8] was 8 nM and the IC50 [9] was 94 nM. The IC50 [10] was 169 nM, the IC50 [11] was 656 nM and the “fraction of cells positive for the phosphorylation of histone 3 (PH3)” value [12] was “increased”. For the same molecule, the “fraction of cells positive for the phosphorylation of histone 3 (PH3)” value [13] was “increased” and the IC50 [14] was over 20000 nM.
